According to patent US6277829A, “Process for preparing of aqueous formulation for opthalmic use” (S.I.F.I. Societa Industria Farmaceutica Italiana S.p.A., priority 1999, dated 2001):

Assays:
[1] = titration of azithromycin and clarithromycin, dispersed in water, with citric acid (FIG. 1, FIG. 2); type: physicochemical; settings: titration with citric acid
[2] = solubility in aqueous solution; type: physicochemical; settings: water; compared with azithromycin; read-out: maximum concentration in water
Source text: Formulations containing azithromycin at concentration ranging from 0.01 to 10% w/v, more particularly between 0.3 and 5% w/v, are the most preferred.

## CC[C@H]1OC(=O)[C@H](C)[C@@H](O[C@H]2C[C@@](C)(OC)[C@@H](O)[C@H](C)O2)[C@H](C)[C@@H](O[C@@H]2O[C@H](C)C[C@H](N(C)C)[C@H]2O)[C@](C)(OC)C[C@@H](C)C(=O)[C@H](C)[C@@H](O)[C@]1(C)O [clarithromycin]
[1]
  equivalent point: ~4.5 pH
[2]
  solubility: < 20 mg/mL
